What was measured:
Bd3459 [1] = molecular target: T1, Bd3459 (Bdellovibrio bacteriovorus, UniProt Q6MHT0, A37M/S70A); test: fluorescent labelling, SDS-PAGE, Typhoon fluorescence scan; type: binding; conditions: active-site serine mutant; labelled compound; 1.25 ug/ml Bocillin-FL, 75 ug/ml protein, 20 mM sodium phosphate pH 4.8, 10 min, 37 °C
T1 construct: E. coli BL21(DE3), modified pET41 (GST removed), Hi-Trap His column; about 46 kDa; likely monomer

Bd3459 [2] = molecular target: T2, Bd3459 (Bdellovibrio bacteriovorus, UniProt Q6MHT0, A37M); test: as above; type: binding; conditions: covalent; labelled compound; 1.25 ug/ml Bocillin-FL, 75 ug/ml protein, 20 mM sodium phosphate pH 4.8, 10 min, 37 °C
T2 construct: E. coli BL21(DE3), modified pET41 (GST removed), Hi-Trap His column; about 46 kDa; likely monomer

Bd3459 [3] = molecular target: T2, Bd3459; test: HPLC muropeptide analysis of digested pentapeptide-rich peptidoglycan; also competition with Bocillin-FL labelling; type: biochemical; conditions: inhibitor pre-incubated at 0.4 mg/ml, 30 min, 37 °C; E. coli CS703-1 peptidoglycan, 20 mM sodium phosphate pH 4.8; labelling assay 2.5 ug/ml ampicillin

T2 sequence (Q6MHT0 entry or part of it A37M): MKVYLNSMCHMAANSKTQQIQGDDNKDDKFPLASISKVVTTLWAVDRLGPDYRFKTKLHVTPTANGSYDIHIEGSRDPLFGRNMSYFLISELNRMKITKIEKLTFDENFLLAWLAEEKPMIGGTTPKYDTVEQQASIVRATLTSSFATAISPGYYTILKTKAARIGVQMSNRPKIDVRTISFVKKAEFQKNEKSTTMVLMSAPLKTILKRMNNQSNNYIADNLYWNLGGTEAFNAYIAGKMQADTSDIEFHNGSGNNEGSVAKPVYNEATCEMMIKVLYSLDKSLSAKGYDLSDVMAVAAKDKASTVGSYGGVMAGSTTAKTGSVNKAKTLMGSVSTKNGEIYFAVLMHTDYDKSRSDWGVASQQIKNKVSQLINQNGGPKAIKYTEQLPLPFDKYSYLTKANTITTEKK
T1 sequence (Q6MHT0 entry or part of it A37M/S70A): as the sequence (Q6MHT0 entry or part of it A37M) above, with S34A counted along it

| Structure (SMILES) | fluorescent labelling, SDS-PAGE, Typhoon fluorescence scan (Bd3459 [1]) | fluorescent labelling, SDS-PAGE, Typhoon fluorescence scan (Bd3459 [2]) | HPLC muropeptide analysis of digested pentapeptide-rich peptidoglycan; also comp (Bd3459 [3]) |
| --- | --- | --- | --- |
| Cc1cc(C)n2c1C=C1C=CC(CCC(=O)Nc3ccc(OCC(=O)N[C@@H]4C(=O)N5[C@@H]4SC(C)(C)[C@@H]5C(=O)O)cc3)=[N+]1[B-]2(F)F [Bocillin-FL] | Bd3459 (S70A) bound significantly less Bocillin-FL | Bd3459 covalently bound the fluorescent beta-lactam Bocillin-FL |  |
| CC1(C)S[C@@H]2[C@H](NC(=O)[C@H](N)c3ccccc3)C(=O)N2[C@H]1C(=O)O [ampicillin] |  |  | The addition of the beta-lactam ampicillin inhibited the WT enzyme |

From article PMC3276566, “Specialized Peptidoglycan Hydrolases Sculpt the Intra-bacterial Niche of Predatory Bdellovibrio and Increase Population Fitness” (PLoS Pathogens, 2012)
